Two compounds from patent US20060019997A1, “Triazole compounds and their use as metabotropic glutamate receptor antagonists” (AstraZeneca AB, priority 2004, published 2006) can be followed below.

The experiment deals with T1, human mGluR5d (Homo sapiens, UniProt P41594).
T1 construct: expressed in transfected cells
Put plainly: FLIPR analysis of [Ca2+]i mobilization (Group I receptor antagonist activity). The format is cell-based. Particulars: cells expressing human mGluR5d; antagonist block of agonist challenge. The text has this:
The pharmacological properties of the compounds of the invention can be analyzed using standard assays for functional activity. Examples of glutamate receptor assays are well known in the art as described in for example Aramori et al., Neuron 8:757 (1992), Tanabe et al., Neuron 8:169 (1992), Miller et al., J. Neuroscience 15: 6103 (1995), Balazs, et al., J. Neurochemistry 69:151 (1997). The methodology described in these publications is incorporated herein by reference. Conveniently, the compounds of the invention can be studied by means of an assay that measures the mobilization of intracellular calcium, [Ca^2+]i in cells expressing mGluR5. […]
FLIPR experiments were done using a laser setting of 0.800 W and a 0.4 second CCD camera shutter speed. […] After each addition of the compound, the fluorescence signal was sampled 50 times at 1 second intervals followed by 3 samples at 5 second intervals. Responses were measured as the peak height of the response within the sample period. […]
FLIPR experiments were done using a laser setting of 0.800 W and a 0.4 second CCD camera shutter speed with excitation and emission wavelengths of 488 nm and 562 nm, respectively. […] After each addition the fluorescence signal was sampled 50 times at 1 second intervals followed by 3 samples at 5 second intervals. Responses were measured as the peak height of the response within the sample period. […]

pIC50: −log10 of the molar value.

In general, pIC50 refers to the negative decadic logarithm of the IC50, by convention in mol/L.

T1 sequence (P41594 21-942 isoform P41594-3 limits assumed): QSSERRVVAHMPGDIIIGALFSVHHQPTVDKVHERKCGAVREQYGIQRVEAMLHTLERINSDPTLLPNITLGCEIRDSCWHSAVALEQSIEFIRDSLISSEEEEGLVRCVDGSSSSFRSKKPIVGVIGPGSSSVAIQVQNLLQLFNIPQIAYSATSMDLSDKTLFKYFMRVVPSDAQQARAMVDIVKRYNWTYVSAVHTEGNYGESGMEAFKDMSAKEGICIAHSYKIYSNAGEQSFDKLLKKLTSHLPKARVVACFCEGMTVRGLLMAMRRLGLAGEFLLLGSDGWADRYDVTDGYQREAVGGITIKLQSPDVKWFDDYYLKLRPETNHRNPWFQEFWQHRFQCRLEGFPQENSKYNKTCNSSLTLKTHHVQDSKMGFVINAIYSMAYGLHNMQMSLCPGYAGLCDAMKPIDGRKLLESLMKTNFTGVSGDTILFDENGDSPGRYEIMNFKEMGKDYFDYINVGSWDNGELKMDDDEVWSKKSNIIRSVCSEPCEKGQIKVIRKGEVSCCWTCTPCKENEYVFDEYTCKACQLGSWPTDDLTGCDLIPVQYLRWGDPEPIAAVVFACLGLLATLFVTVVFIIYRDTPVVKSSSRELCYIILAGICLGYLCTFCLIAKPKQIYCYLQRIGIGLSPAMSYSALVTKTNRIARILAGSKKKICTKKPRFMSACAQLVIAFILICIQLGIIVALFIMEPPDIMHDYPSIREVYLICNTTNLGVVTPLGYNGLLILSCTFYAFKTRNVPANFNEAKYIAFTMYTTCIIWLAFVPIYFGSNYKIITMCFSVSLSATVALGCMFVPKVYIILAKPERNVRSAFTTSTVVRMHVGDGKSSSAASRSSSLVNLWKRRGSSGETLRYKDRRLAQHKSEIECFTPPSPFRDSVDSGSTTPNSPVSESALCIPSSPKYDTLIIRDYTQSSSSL

`CC(Oc1nnc(-c2ccncc2)n1C)c1cnn(-c2cccc(Cl)c2)n1` (centres unmarked) [4-(5-{1-[2-(3-chlorophenyl)-2H-1,2,3-triazol-4-yl]ethoxy}-4-methyl-4H-1,2,4-triazol-3-yl)pyridine] showed a pIC50 of 7.57.

`Clc1cccc(-n2cc(CSc3nnc(-c4ccncc4)n3C3CC3)nn2)c1` [4-{5-[1-(3-Chloro-phenyl)-1H-[1,2,3]triazol-4-ylmethylsulfanyl]-4-cyclopropyl-4H-[1,2,4]triazol-3-yl}-pyridine]: the pIC50 was 6.58.
